US20250388605A1, “HETEROBIFUNCTIONAL COMPOUNDS AND METHODS OF TREATING DISEASE” (Halda Therapeutics OpCo, Inc., priority 2022, published 2025)

Assays:
[1] = system: T-Rex 293 cell line SC3 cells having increased expression of androgen receptor protein due to exposure to doxycycline; experiment: Cellular growth inhibition, T-Rex 293 SC3 cells with doxycycline (increased androgen receptor expression), CellTiter-Glo; format: cell-based; conditions: T-Rex 293 SC3 cells with 10 ng/mL doxycycline (increased androgen receptor expression), 72 hours, CellTiter-Glo 2.0
Outline: (§1)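 Doxycycline (10 ng/mL) was either included or omitted to toggle wild-type androgen receptor expression in SC3 cells, a T-Rex 293 clone, grown in stripped-serum, phenol red-free medium. After 72 hours with compound, viable cells were quantified by CellTiter-Glo 2.0.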

[2] = system: T-Rex 293 cell line SC3 cells lacking increased expression of androgen receptor protein; experiment: Cellular growth inhibition, T-Rex 293 SC3 cells without doxycycline (no increased androgen receptor expression), CellTiter-Glo; format: cell-based; conditions: T-Rex 293 SC3 cells not exposed to doxycycline (no increased androgen receptor expression), 72 hours
Outline: as §1

VCaP cells = experiment: Cellular growth inhibition assay for VCaP cells, CellTiter-Glo; format: cell-based, human; conditions: 72 hours
Outline: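 GI50 values come from four-parameter curve fits of luminescence data normalized to a zero baseline. Compound, in medium with 0.5% DMSO, was added one day after plating and left for 72 h before CellTiter-Glo 2.0 addition.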

T47D cells = experiment: Cellular Growth Inhibition Assay for T47D Cells (CellTiter-Glo); format: cell-based, human; conditions: 72 hours
Experimental: Exemplary compounds were tested for ability to inhibit the proliferation of T47D cells. T47D cells are a commercially available human breast cancer cell line.
T47D cells were purchased from American Type Cell Culture (ATCC Cat #HTB-133) and then seeded on poly-D-lysine coated, black clear-bottom 384-well plates at 3000/well in 25 μL Dulbecco's Modified Eagle Medium (DMEM) supplemented with 10% w/w Fetal bovine serum (FBS), 0.2 units/mL recombinant human insulin (Gibco Cat #12585014), and 1% w/w Pen-Strep. Pen-Strep is a commercially available mixture of penicillin G and streptomycin, which is used in mammalian cell culture media to prevent bacterial contamination. Dulbecco's Modified Eagle Medium (DMEM) supplemented with 10% w/w fetal bovine serum (FBS), 0.2 units/mL recombinant human insulin, and 1% w/w Pen-Strep is herein referred to as Treatment Medium. Following seeding of cells in the plates, the plates were spun at 300×g for 30 seconds, then equilibrated to room temperature for 30 minutes, and then deposited in a humidified tissue culture incubator maintained at 37° C. with 5% CO2.
At 24 hours after seeding of the cells, dilutions of test compound were prepared in DMSO and dissolved in Treatment Medium, to achieve a final DMSO concentration of 0.5% w/w, thereby providing the Test Compound Solution. A 25 μL aliquot of the Test Compound Solution was added to cells in the well plates. An equal volume of a solution containing DMSO and Treatment Medium was used as a negative control. Following treatment of cells with Test Compound Solution or said equal volume of a solution containing DMSO and Treatment Medium, the plates were spun at 300×g for 30 seconds, and then left in an incubator for 72 hours.
At the end of the treatment duration, cell viability was quantified with CellTiter-Glo 2.0 reagent (Promega Cat #G9243). For this purpose, plates were equilibrated to room temperature for 30 minutes, and then 25 μL of CellTiter-Glo 2.0 reagent was added to cells in the plate wells. Plates were then agitated on a shaker for two minutes at 500 rpm and subsequently incubated at room temperature for 10 minutes. Following incubation, the plates were spun at 3000×g for 30 seconds, then sealed with an optical adhesive cover, and luminescence readings were measured with an EnVision Plate Reader (Perkin Elmer).
Data was normalized using zero luminescence for baseline. A four-parameter non-linear regression curve fit was applied to dose-response data in GraphPad Prism data analysis software to determine the half-maximal growth inhibitory concentration (GI50) for each test compound.

SMILES | GI50 [1] [µM] | GI50 [2] [µM] | GI50 (VCaP cells) [µM] | GI50 (T47D cells) [µM] | GI50 (VCaP cells; Homo sapiens) [µM] | GI50 (T47D cells; Homo sapiens) [µM]
Cn1cc(-c2cc(C(C)(C)O)ccc2Oc2ccc(CC3CC(C4CCCN(c5ncc(C(=O)N[C@H]6C(C)(C)[C@H](Oc7ccc(C#N)c(Cl)c7)C6(C)C)cn5)C4)C3)cc2)c2cc[nH]c2c1=O (single isomer, unassigned) [Compound I-347] | > 3 | > 3 | < 0.5 | < 0.5 | – | –
Cn1cc(-c2cc(C(C)(C)O)ccc2Oc2ccc(CC3CC(C4CCCN(c5ncc(C(=O)N[C@H]6C(C)(C)[C@H](Oc7ccc(C#N)c(Cl)c7)C6(C)C)cn5)C4)C3)cc2)c2cc[nH]c2c1=O (single isomer, unassigned) [Compound I-348] | < 0.5 | > 3 | < 0.5 | < 0.5 | – | –
Cn1cc(-c2cc(C(C)(C)O)ccc2Oc2ccc(CC3CC(C4CCCN(c5ncc(C(=O)N[C@H]6C(C)(C)[C@H](Oc7ccc(C#N)c(Cl)c7)C6(C)C)cn5)C4)C3)cc2)c2cc[nH]c2c1=O (single isomer, unassigned) [Compound I-349] | > 3 | > 3 | < 0.5 | < 0.5 | – | –
CCS(=O)(=O)Nc1ccc(Oc2cccc(CC3CCN(c4ncc(C(=O)N[C@H]5C(C)(C)[C@H](Oc6ccc(C#N)c(Cl)c6)C5(C)C)cn4)CC3)c2)c(-c2cn(C)c(=O)c3[nH]ccc23)c1 [Compound I-23] | < 0.5 | < 0.5 | – | – | < 0.5 | < 0.5
CCS(=O)(=O)Nc1ccc(Oc2cccc(OC3CCN(c4ncc(C(=O)N[C@H]5C(C)(C)[C@H](Oc6ccc(C#N)c(Cl)c6)C5(C)C)cn4)CC3)c2)c(-c2cn(C)c(=O)c3[nH]ccc23)c1 [Compound I-24] | < 0.5 | < 0.5 | – | – | < 0.5 | < 0.5
CCS(=O)(=O)Nc1ccc(Oc2cccc(OCC3CCN(c4ncc(C(=O)N[C@H]5C(C)(C)[C@H](Oc6ccc(C#N)c(Cl)c6)C5(C)C)cn4)CC3)c2)c(-c2cn(C)c(=O)c3[nH]ccc23)c1 [Compound I-25] | < 0.5 | < 0.5 | – | – | < 0.5 | < 0.5
CCS(=O)(=O)Nc1ccc(Oc2cccc(OC3CN(c4ncc(C(=O)N[C@H]5C(C)(C)[C@H](Oc6ccc(C#N)c(Cl)c6)C5(C)C)cn4)C3)c2)c(-c2cn(C)c(=O)c3[nH]ccc23)c1 [Compound I-30] | < 0.5 | < 0.5 | – | – | < 0.5 | < 0.5
CCS(=O)(=O)Nc1ccc(Oc2cccc(N(C)C3CN(c4ncc(C(=O)N[C@H]5C(C)(C)[C@H](Oc6ccc(C#N)c(Cl)c6)C5(C)C)cn4)C3)c2)c(-c2cn(C)c(=O)c3[nH]ccc23)c1 [Compound I-31] | 0.5 to 1.5 | < 0.5 | – | – | < 0.5 | < 0.5
CCS(=O)(=O)Nc1ccc(Oc2cccc(N3CCN(CC4CCN(c5ncc(C(=O)N[C@H]6C(C)(C)[C@H](Oc7ccc(C#N)c(Cl)c7)C6(C)C)cn5)CC4)CC3)c2)c(-c2cn(C)c(=O)c3[nH]ccc23)c1 [Compound I-37] | < 0.5 | < 0.5 | – | – | < 0.5 | 0.5 to 1.5
CCS(=O)(=O)Nc1ccc(Oc2cccc(N3CCC(CC4CCN(c5ncc(C(=O)N[C@H]6C(C)(C)[C@H](Oc7ccc(C#N)c(Cl)c7)C6(C)C)cn5)CC4)C3)c2)c(-c2cn(C)c(=O)c3[nH]ccc23)c1 (some centres unmarked) [Compound I-40] | < 0.5 | > 3 | – | – | < 0.5 | < 0.5
CCS(=O)(=O)Nc1ccc(Oc2cccc(N3CCC(N(C)C4CCN(c5ncc(C(=O)N[C@H]6C(C)(C)[C@H](Oc7ccc(C#N)c(Cl)c7)C6(C)C)cn5)CC4)C3)c2)c(-c2cn(C)c(=O)c3[nH]ccc23)c1 (some centres unmarked) [Compound I-41] | < 0.5 | 0.5 to 1.5 | – | – | < 0.5 | < 0.5
CCS(=O)(=O)Nc1ccc(Oc2cccc(N(C)C3CCN(C4CCN(c5ncc(C(=O)N[C@H]6C(C)(C)[C@H](Oc7ccc(C#N)c(Cl)c7)C6(C)C)cn5)CC4)C3)c2)c(-c2cn(C)c(=O)c3[nH]ccc23)c1 (some centres unmarked) [Compound I-42] | < 0.5 | < 0.5 | – | – | < 0.5 | < 0.5
CCS(=O)(=O)Nc1ccc(Oc2cccc(OC3CCN(C4CCN(c5ncc(C(=O)N[C@H]6C(C)(C)[C@H](Oc7ccc(C#N)c(Cl)c7)C6(C)C)cn5)CC4)C3)c2)c(-c2cn(C)c(=O)c3[nH]ccc23)c1 (some centres unmarked) [Compound I-43] | < 0.5 | 1.5 to 3 | – | – | < 0.5 | < 0.5
CC(=O)Nc1ccc(Oc2cccc(OCCOC3CCN(c4ncc(C(=O)N[C@H]5C(C)(C)[C@H](Oc6ccc(C#N)c(Cl)c6)C5(C)C)cn4)CC3)c2)c(-c2cn(C)c(=O)c3[nH]ccc23)c1 [Compound I-57, 2-(4-(2-(3-(4-acetamido-2-(6-methyl-7-oxo-6,7-dihydro-1H-pyrrolo [2,3-c]pyridin-4-yl)phenoxy)phenoxy)ethoxy)piperidin-1-yl)-N-((1r, 3r)-3-(3-chloro-4-cyanophenoxy)-2,2,4,4-tetramethylcyclobutyl)pyrimidine-5-carboxamide] | < 0.5 | 0.5 to 1.5 | – | – | < 0.5 | < 0.5
CC(=O)N(C)c1ccc(Oc2cccc(OCCOC3CCN(c4ncc(C(=O)N[C@H]5C(C)(C)[C@H](Oc6ccc(C#N)c(Cl)c6)C5(C)C)cn4)CC3)c2)c(-c2cn(C)c(=O)c3[nH]ccc23)c1 [Compound I-58] | < 0.5 | > 3 | – | – | < 0.5 | 0.5 to 1.5
Cn1cc(-c2cc([N+](=O)[O-])ccc2Oc2cccc(OCCOC3CCN(c4ncc(C(=O)N[C@H]5C(C)(C)[C@H](Oc6ccc(C#N)c(Cl)c6)C5(C)C)cn4)CC3)c2)c2cc[nH]c2c1=O [Compound I-63, N-((1r, 3r)-3-(3-chloro-4-cyanophenoxy)-2,2,4,4-tetramethylcyclobutyl)-2-(4-(2-(3-(2-(6-methyl-7-oxo-6,7-dihydro-1H-pyrrolo[2,3-c]pyridin-4-yl)-4-nitrophenoxy)phenoxy)ethoxy)piperidin-1-yl)pyrimidine-5-carboxamide] | < 0.5 | > 3 | – | – | < 0.5 | 0.5 to 1.5
CCS(=O)(=O)Nc1ccc(Oc2cccc(C3CN(C4CCN(c5ncc(C(=O)N[C@H]6C(C)(C)[C@H](Oc7ccc(C#N)c(Cl)c7)C6(C)C)cn5)CC4)C3)c2)c(-c2cn(C)c(=O)c3[nH]ccc23)c1 [Compound I-76] | < 0.5 | 1.5 to 3 | – | – | < 0.5 | < 0.5
Cn1cc(-c2cc(C(C)(C)O)ccc2OC2CC3CC2CC3OC2CCN(c3ncc(C(=O)N[C@H]4C(C)(C)[C@H](Oc5ccc(C#N)c(Cl)c5)C4(C)C)cn3)CC2)c2cc[nH]c2c1=O (some centres unmarked) [Compound I-253, N-[3-(3-chloro-4-cyano-phenoxy)-2,2,4,4-tetramethyl-cyclobutyl]-2-[4-[5-[4-(1-hydroxy-1-methyl-ethyl)-2-(6-methyl-7-oxo-1H-pyrrolo[2,3-c]pyridin-4-yl)phenoxy]norbornan-2-yl]oxy-1-piperidyl]pyrimidine-5-carboxamide] | – | – | – | – | < 0.5 | 0.5 to 1.5
Cn1cc(-c2cc(C(C)(C)O)ccc2OC(C)(C)CN2CC(OC3CCN(c4ncc(C(=O)N[C@H]5C(C)(C)[C@H](Oc6ccc(C#N)c(Cl)c6)C5(C)C)cn4)CC3)C2)c2cc[nH]c2c1=O [Compound I-254, N-[3-(3-chloro-4-cyano-phenoxy)-2,2,4,4-tetramethyl-cyclobutyl]-2-[4-[1-[2-[4-(1-hydroxy-1-methyl-ethyl)-2-(6-methyl-7-oxo-1H-pyrrolo[2,3-c]pyridin-4-yl)phenoxy]-2-methyl-propyl]azetidin-3-yl]oxy-1-piperidyl]pyrimidine-5-carboxamide] | – | – | – | – | < 0.5 | > 3
Cn1cc(-c2cc(C(C)(C)O)ccc2Oc2ccc(C3(NCC4CCN(c5ncc(C(=O)N[C@H]6C(C)(C)[C@H](Oc7ccc(C#N)c(Cl)c7)C6(C)C)cn5)CC4)COC3)cc2)c2cc[nH]c2c1=O [Compound I-256] | – | – | < 0.5 | < 0.5 | – | –
